{"source": "paper PMC10570016", "about": "“Domain collapse and active site ablation generate a widespread animal mitochondrial seryl-tRNA synthetase” (Nucleic Acids Research, 2023)", "target": "T1, DmSLIMP/DmSerRS2α (Drosophila melanogaster, UniProt Q9VF85)", "T1 construct": "gene SerRS-m; co-expressed in E. coli BL21(DE3) from bicistronic pOPINFS; C-terminal 6His on DmSerRS2α, C-terminal Strep II on DmSLIMP; heterodimer; HisTrap; with Seryl-tRNA synthetase-like insect mitochondrial protein", "T1 sequence (Q9VF85 22-417)": "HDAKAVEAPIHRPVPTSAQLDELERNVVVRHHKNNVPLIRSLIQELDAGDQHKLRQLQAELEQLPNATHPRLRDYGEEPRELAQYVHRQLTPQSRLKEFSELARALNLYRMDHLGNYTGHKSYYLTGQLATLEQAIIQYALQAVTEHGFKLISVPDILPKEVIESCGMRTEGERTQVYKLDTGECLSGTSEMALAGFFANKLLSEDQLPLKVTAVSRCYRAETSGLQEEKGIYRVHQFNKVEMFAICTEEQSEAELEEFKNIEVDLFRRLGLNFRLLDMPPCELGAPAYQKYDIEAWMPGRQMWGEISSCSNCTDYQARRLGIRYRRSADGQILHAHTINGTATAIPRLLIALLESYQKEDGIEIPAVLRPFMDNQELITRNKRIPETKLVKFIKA", "T1 sequence (Q95T19 1-464 partner)": "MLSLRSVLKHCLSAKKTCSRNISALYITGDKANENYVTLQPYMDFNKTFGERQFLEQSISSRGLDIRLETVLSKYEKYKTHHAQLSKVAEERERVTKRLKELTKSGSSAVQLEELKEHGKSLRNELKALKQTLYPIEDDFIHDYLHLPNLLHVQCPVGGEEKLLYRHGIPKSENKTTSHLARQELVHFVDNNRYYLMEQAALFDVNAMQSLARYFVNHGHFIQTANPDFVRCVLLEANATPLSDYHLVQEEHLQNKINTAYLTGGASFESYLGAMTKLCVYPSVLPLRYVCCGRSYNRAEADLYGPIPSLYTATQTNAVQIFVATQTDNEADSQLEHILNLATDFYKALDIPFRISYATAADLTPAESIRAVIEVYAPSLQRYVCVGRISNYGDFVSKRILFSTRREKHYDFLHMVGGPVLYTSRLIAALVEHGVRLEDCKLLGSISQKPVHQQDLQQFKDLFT", "test": "radiometric tRNA aminoacylation, scintillation counting", "assay_type": "biochemical", "details": "co-substrates ATP and in vitro transcribed Drosophila mt-tRNA-Ser(GCU); Mg2+; labelled compound; pH 7.2, 25 °C (mutant SerRS and tRNA assays pH 7.5)"}
{"smiles": "N[C@@H](CO)C(=O)O", "note": "[serine]", "values": [{"measurement": "radiometric tRNA aminoacylation, scintillation counting", "result": "In all cases the aminoacylation activity of DmSLIMP/DmSerRS2α was not affected by the presence of the LON domain"}]}
